Active and inactive are the calls of the source. The rule behind the calls is not given here.

The record followed here is ChEMBL document CHEMBL1153669, “Rs-100235: A high affinity 5-HT4 receptor antagonist” (Bioorg Med Chem Lett, 1995).

Data set [1] deals with 5-hydroxytryptamine receptor 4 (Rattus norvegicus) (UniProt Q62758). As to the kind of experiment: Antagonist activity against 5-HT4 receptor mediated relaxation of rat carbachol contracted esophageal muscularis mucosae. The data set is classed as functional.
The subject of data set [2] is Sus scrofa. In words: Antagonism of 5-HT-induced tachycardia in anesthetized, vagotomized Yucatan micropigs at 1-300 ug/kg dose administered intravenously. The data set is classed as functional. The conditions noted are these: iv, read-out: ID50 (the source's name).
For data set [3], the system named is Sus scrofa. In words: Antagonism of 5-HT-induced tachycardia in anesthetized, vagotomized Yucatan micropigs at 30-3000 ug/kg dose administered intraduodenally. To be noted: intraduodenal, read-out: ID50 (the source's name). It counts as functional.
The nature of data set [4]: Compound was tested for its half-life period at an intravenous dose of 30 ug/kg. The data set is classed as ADME, organism-based, Sus scrofa. The conditions noted are these: pig, in vivo, 0.03 mg/kg.
For data set [5], the system named is Sus scrofa. In words: Antagonism of 5-HT-induced tachycardia in anesthetized, vagotomized Yucatan micropigs at 3-3000 ug/kg dose administered intraduodenally; no effect. It counts as functional, organism-based.
Data set [6] relates to Sus scrofa. As to the kind of experiment: Antagonism of 5-HT-induced tachycardia in anesthetized, vagotomized Yucatan micropigs at 0.1-300 ug/kg dose administered intravenously. The data set is classed as functional. To be noted: iv, read-out: ID50 (the source's name).

Sequence of 5-hydroxytryptamine receptor 4 (Rattus norvegicus) (Q62758 whole entry): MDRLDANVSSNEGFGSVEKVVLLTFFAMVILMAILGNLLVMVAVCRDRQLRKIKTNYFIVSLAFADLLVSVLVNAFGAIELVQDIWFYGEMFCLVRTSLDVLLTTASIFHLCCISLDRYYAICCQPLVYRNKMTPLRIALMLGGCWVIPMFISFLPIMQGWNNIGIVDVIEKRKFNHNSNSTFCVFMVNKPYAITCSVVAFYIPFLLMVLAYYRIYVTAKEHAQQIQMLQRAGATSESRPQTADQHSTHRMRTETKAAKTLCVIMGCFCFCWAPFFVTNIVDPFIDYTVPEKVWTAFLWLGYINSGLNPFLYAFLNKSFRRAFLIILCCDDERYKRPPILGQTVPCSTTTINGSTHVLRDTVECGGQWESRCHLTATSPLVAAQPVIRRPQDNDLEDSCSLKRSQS

`CCCCN1CCC(CCC(=O)c2cc(Cl)c(N)c3c2OCCO3)CC1` registered a negative logarithm of the Kb (pKb) in data set [1] of 9.9.
Still for that read-out and setting: the figure for `CS(=O)(=O)NCCN1CCC(CCC(=O)c2cc(Cl)c(N)c3c2OCCO3)CC1` is 9.9.
`COc1cc(COc2cc(N)c(Cl)cc2C(=O)CCC2CCN(CCNS(C)(=O)=O)CC2)cc(OC)c1`: the values for the ED50 in data set [2] and in data set [3] were 4.68 µg/kg and 245 µg/kg, respectively. This molecule displayed a pKb in data set [1] of 9.1. This molecule also registered a half-life in data set [4] of 5.25 h.
Molecule `CCCCN1CCC(COC(=O)c2cc(Cl)c(N)c3c2OCCO3)CC1` yielded a pKb in data set [1] of 10.3. The ID50 entry in data set [5] is “inactive”. In data set [4], this molecule came in with a half-life of less than 2.5 h. Also, in data set [6], the ED50 amounted to 8 µg/kg.
In the case of `COc1ccc(CCCN2CCC(CCC(=O)c3cc(Cl)c(N)c4c3OCCO4)CC2)cc1`, the pKb in data set [1] turned out to be 10.6.
On the same count and under the same terms, the result for `Cn1cc(C(=O)OCC2CCN(CCNS(C)(=O)=O)CC2)c2ccccc21` reads 9; that for `Nc1c(Cl)cc(C(=O)CCC2CCN(CCCc3ccccc3)CC2)c2c1OCCO2`, 9.6.
